The text below walks through data of ChEMBL document CHEMBL3507680, “University of Dundee, Gates Library screen for HepG2 cell viability”.

The structures appear in SMILES notation.

The data set is described as follows: Human HepG2 cell viability assay in 384 well format. It counts as toxicity, cell-based. Also on record: dose 125 nL, time 70.5 hour; concentration not given beside the values. The settings on record: HepG2 cells, read-out: Inhibition.
On to `O=C(CC1CCCCC1)N1CCC(O)(C(F)(F)F)C1` (centres undefined), for which the cytotoxicity at 70.5 h was found to be 1.99%.

With `COc1cccc(-c2noc(-c3ccc(NCC(C)C)nc3)n2)c1OC`, the cytotoxicity at 70.5 h was -2.74%. `O=C(c1cnccn1)N1CCc2c(COCC3CC3)cncc2C1`: the cytotoxicity at 70.5 h was -7.37%.

In the case of `Cc1ccsc1C(=O)N1CCC(O)(CN2CCc3ccccc3C2)C1` (centres undefined), the cytotoxicity at 70.5 h is -6.62%.

With `CCOC(C)c1noc(CN2CCCN(c3ccccn3)CC2)n1` (centres undefined), the cytotoxicity at 70.5 h was -12.6%. The value for `CC(Nc1ccc2c(c1)CCC2)c1nc(C2CC2)no1` (centres undefined) was -3.74%; that for `Cc1ncnc2c1CCN(C(=O)c1cccn1C)CC2` was -5.38%. With `Cc1ccccc1C(=O)NC1CCN(c2cnn(C)c2)C1=O` (centres undefined) the figure was -4.47%; with `Cc1nn(C)c(N2CCOCC2)c1CNCc1ccnc(N(C)C)c1`, -5.34%.

In the case of `Cc1cc2nc(C(C)C)cc(N3CCC(N(C)C)C3)n2n1` (centres undefined), the cytotoxicity at 70.5 h was 2.59%. With `NC(=O)Cn1cc(NC(=O)N2CCC(c3ccccc3)CC2)cn1` the figure was -5.24%; with `CC(=O)Nc1ccc(OCc2noc(C(=O)N3CCCC3)n2)cc1`, -14.2%.

Take `CC1CN(C)CCN1C(=O)c1ccn(-c2cccc(F)c2)n1` (centres undefined): the cytotoxicity at 70.5 h is -15.8%. The value for `CC(C)(C)CC(=O)NCC(=O)Nc1ccn(Cc2ccncc2)n1` was -20.8%; that for `Cn1cnc2c(N3CCOCC3)nc(C3CCNCC3)cc21` was -1.78%. With `CN1CCC(NC(=O)C2CN(c3cncnc3)CCO2)CC1` (centres undefined) the figure was -7.93%. `Cc1nc(CC(C)C)sc1C(=O)N1CCC(C2(C)OCCO2)CC1`: the cytotoxicity at 70.5 h was found to be 2.11%. The value for `CC(O)CN1CCC(CNCc2cccc(OC(C)C)c2)CC1` (centres undefined) was 47%; that for `O=C(c1cncc(Br)c1)N1CCCc2c(F)cc(F)cc21` was -3%; that for `CC(=O)N1CCC(c2nnc3ccc(C(=O)NCCN(C)C)cn23)C1` (centres undefined) was -10.5%. `COc1cccc(NC(=O)N(CCO)C2CCc3ccccc32)c1` (centres undefined): the cytotoxicity at 70.5 h is -0.598%. With `O=C(CCc1cccc(F)c1F)N1CCCC(n2cncn2)C1` (centres undefined) the figure was -6.22%; with `CCCc1nc(N2CCCN(c3ncccn3)CC2)c2cnn(C)c2n1`, 4.78%. With `NC1(C(=O)NCC2CCCN(Cc3ccccc3F)C2)CCCC1` (centres undefined) the figure was -1.04%. With `CC(=O)N1CCC(Cc2cnc(C(=O)N3CCCC3)cn2)C1` (centres undefined) the figure was -4.28%; with `c1ccc(SCCN2CCN(CCn3cncn3)CC2)cc1`, -22.3%; with `COc1ccc2c(c1)C(=O)N(C)C1(CCN(CC=C(C)C)CC1)N2`, -2.27%. As for `c1cnc(N2CCOCC3(CN(Cc4nccs4)CCO3)C2)nc1` (centres undefined), the cytotoxicity at 70.5 h is -2.26%. With `O=C(NCc1csc2ccc(Cl)cc12)c1cc2n(n1)CCNC2` the figure was 3.64%; with `O=C(O)c1ccc(S(=O)(=O)Nc2cnn(CC(F)(F)F)c2)cc1`, 3.28%; with `Cc1cccc2sc(NC(=O)CN3CCCC(O)(CO)C3)nc12` (centres undefined), 11%. For the compound `O=C(O)c1ccc(F)c(S(=O)(=O)N2CCOc3ccccc32)c1`, the cytotoxicity at 70.5 h was -4.17%.

For `Cc1ccc(NC(C)(C)c2nnnn2-c2ccc(Cl)cc2)c(C)c1`, the cytotoxicity at 70.5 h was found to be 0.988%. The value for `NCc1cnn(-c2ccccc2C(=O)NCCc2ccccn2)c1` was -6.02%; that for `CSCCC(Nc1nc(C)cc(C)n1)C(=O)NC1CC1` (centres undefined) was -10.9%.

In the case of `Oc1cccc(CNCc2ccc(-n3cncn3)nc2)c1`, the cytotoxicity at 70.5 h worked out at 0.561%. The value for `CCOCC1CC2(CCN(C(=O)c3ccccc3F)CC2)CO1` (centres undefined) was 0.964%; that for `Cc1nn(C)c(C)c1C1CCCN1C(=O)c1cnc2n[nH]c(C)c2c1` (centres undefined) was -7.81%.

With `c1cn(CC2CCOCC2)c(-c2cc(CN3CCCC3)cs2)n1`, the cytotoxicity at 70.5 h was -3.55%. On to `O=C1NC2(CCN(Cc3cccs3)CC2)CC1c1ccncc1` (centres undefined), for which the cytotoxicity at 70.5 h came to 10.2%. The value for `N#CCCN(Cc1cccnc1)C(=O)c1cccc(-n2cnnn2)c1` was -8.57%; that for `CN1CCN(C2CCN(CC(O)c3ccccc3)CC2)C1=O` (centres undefined) was 4.73%; that for `CC(C(=O)NCCCn1ccnc1)n1cc(Br)cn1` (centres undefined) was -9.82%. The value for `COCCN(Cc1cnn(C)c1)c1nc2c(s1)c(C)nn2C` was 3.84%. The value for `Cc1noc(CCCC(=O)N(CCC(=O)O)Cc2ccc(F)c(F)c2)n1` was -3.72%; that for `CCn1cc(NC(=O)NC2CCCc3c2cnn3CCO)cn1` (centres undefined) was -2.96%. On to `CN(C)c1cc(C(=O)N2CCN(c3cc(C#N)ccn3)CC2)ccn1`, for which the cytotoxicity at 70.5 h is -16.5%. As for `O=C(c1csc(-c2ncccn2)n1)N1CCN2CCCCC2C1` (centres undefined), the cytotoxicity at 70.5 h is -5.52%. For the compound `CCNC(=O)C1CCN(c2cc(-c3ccccc3F)nc3ccnn23)C1` (centres undefined), the cytotoxicity at 70.5 h was 14.5%.

As to `O=c1c2sccc2nc2n1CCN(Cc1cccs1)CC2`, the cytotoxicity at 70.5 h was -18.8%. With `CC(=O)N1CCc2nc(C3CCN(c4ncccn4)C3)ncc2C1` (centres undefined) the figure was -0.395%. With `Cn1cnc2cc(NC(=O)c3n[nH]c4c3CCC4)ccc21` the figure was -3.46%; with `COCCC(=O)N1CCOCC2(CCN(Cc3cccs3)C2)C1` (centres undefined), -12.3%. With `Cc1ccccc1C1CN(c2cnn(C)c(=O)c2Cl)CCO1` (centres undefined) the figure was -1.35%.

Regarding `CCC(=O)N1CCC[C@]2(C(=O)N(C)C)CN(c3ccccn3)C[C@@H]2C1`, the cytotoxicity at 70.5 h is -9.46%. For the compound `COc1ccc(/C=C/CN2CCC3(C2)CN(C)C(=O)O3)cc1` (centres undefined), the cytotoxicity at 70.5 h was -6.62%. With `Cc1nnc(N2C[C@H](C(=O)NCc3ccco3)[C@@H]3CCO[C@@H]3C2)s1` the figure was -1.66%. With `CC1CCCN(CCCNC(=O)c2ccc(N(C)S(C)(=O)=O)cc2Cl)C1` (centres undefined) the figure was -2.33%; with `CN(C)C(=O)CCN1CC(c2ccccc2)(c2ccccc2)CCC1=O`, 4.06%. With `CCC1CN(C(=O)c2cccnc2O)CCC(=O)N1Cc1ccccc1` (centres undefined) the figure was -3.15%; with `Cn1cc(CN(Cc2ccccc2)CC(O)c2cccs2)cn1` (centres undefined), -8.92%. As for `Cn1cc(C2=NOC(C(=O)NC3(c4ccccc4F)CCCC3)C2)cn1` (centres undefined), the cytotoxicity at 70.5 h was 12.6%. With `c1cnc(N2CCO[C@H]3CN(CC4CC4)C[C@H]32)nc1` the figure was -8.99%. On to `CCc1nc(C2CCCN2Cc2ncc(C)c(OC)c2C)no1` (centres undefined), for which the cytotoxicity at 70.5 h was -5.08%. The value for `CCN(CC(=O)NC(C)C)C(=O)c1ccc(-c2ccsc2)nc1C` was -3.6%; that for `COCC(C)(NC(=O)c1cc(Cl)c(-n2cccc2)cc1OC)C(N)=O` (centres undefined) was -2.57%. With `Cc1nc2sc(C(=O)N3CCNC(=O)C3)c(C)c2c(=O)[nH]1` the figure was -4.68%; with `CN(Cc1cccc(O)c1)C(=O)Nc1cccnc1N1CCCC1`, 16.2%; with `CCc1noc(CS(=O)(=O)CC=C(C)C)n1`, -9.04%.

With `O=C1C(NCc2nnc3n2CCCC3)CCN1c1ccccc1` (centres undefined), the cytotoxicity at 70.5 h is -5.59%. With `CN1CCCC(Cc2cc(N(C)C)ncn2)C1` (centres undefined) the figure was -5.24%; with `COc1ccccc1C(O)CNc1c(C#N)c(=O)n(C)c(=O)n1C` (centres undefined), -0.895%. The value for `CCn1ncc(S(=O)(=O)N[C@@H]2CCC[C@@H](n3ccnc3)[C@@H]2O)c1C` was -2.3%; that for `Cc1ccc(O)c(CNc2cccc(OCCF)c2)n1` was -5.5%; that for `CCCn1cc(C(=O)N2CCCC2(C)c2nc(C)cc(C)n2)cn1` (centres undefined) was -13.9%. Regarding `CNC(=O)NC(=O)CCSCc1cc(F)cc2cccnc12`, the cytotoxicity at 70.5 h was -27.1%. Consider `CCOC(=O)N1CCN(c2nc(NC)c3ccccc3n2)CC1`, for which the cytotoxicity at 70.5 h was -15.5%.

As for `Cc1cc(OCCC(=O)NCc2ccc(F)cc2)nnc1C`, the cytotoxicity at 70.5 h amounted to 0.423%. The value for `O=C(O)c1cccc(CN2CCCC(c3ccn[nH]3)C2)c1` (centres undefined) was -4.41%; that for `CN(C)CCn1c(=O)oc2ccc(NC(=O)c3cc(Cl)c[nH]3)cc21` was -2.49%; that for `CN1CCCCCC1C(=O)N1CCCN(c2ccccc2)CC1` (centres undefined) was 4.68%.

In the case of `CCN(CC)S(=O)(=O)N1CCc2nc(C3CCNCC3)ncc2C1`, the cytotoxicity at 70.5 h was -4.41%. As to `CCC[C@H]1CN(Cc2nccn2C)C[C@@H]1NC(=O)C1(COC)CCC1`, the cytotoxicity at 70.5 h was -4.15%.

Consider `O=C(C[C@@H]1COC[C@H]2CN(Cc3cccnc3)C[C@@H]12)N1CCCC1`, for which the cytotoxicity at 70.5 h is -4.76%. The value for `CC(=O)NC1Cc2ccc(S(=O)(=O)NCCNc3ccccn3)cc2C1` (centres undefined) was -4.42%; that for `Cc1cccc(CN2C[C@@H]3COC[C@]3(CNC(=O)N3CCCC3)C2)n1` was 0.0201%; that for `CCS(=O)(=O)N(C)C1CCN(Cn2ccc(-c3ccc(F)cc3)n2)CC1` was -13.9%. With `Cc1cn2nc(N3CCn4c(nnc4C(C)C)C3)sc2n1` the figure was 12%.

Consider `CCN(C(=O)COC)C(c1cccnc1)c1ccc2c(c1)CCO2` (centres undefined), for which the cytotoxicity at 70.5 h was -2.44%.

As to `CCN(CC)CCN1CCO[C@H]2[C@@H](OCc3ccccn3)CC[C@@H]21`, the cytotoxicity at 70.5 h was -4.9%.

Consider `CNC(=O)[C@H]1CC[C@@H]2[C@@H](CCN2CCOCc2ccccc2)O1`, for which the cytotoxicity at 70.5 h is -12.3%. With `Cc1nc(CN2CCCC(NCc3cnn(C)c3)C2)no1` (centres undefined), the cytotoxicity at 70.5 h was -8.69%.

On to `COc1ccc(F)cc1CSCC(=O)N(C)CCC#N`, for which the cytotoxicity at 70.5 h is 0.901%. With `COc1cc2nc3n(c(=O)c2cc1OC)CCN(C(=O)C(C)(C)C)CC3` the figure was -1.33%; with `O=S(=O)(Nc1cnc(N2CCCC2)nc1)c1ccc(F)cc1F`, -6.31%; with `CCc1noc(CNc2ccc(C(=O)N3CCCC3)cc2C)n1`, 10.5%.

On to `c1ccc2oc(CCCN3CCOC(Cn4cccn4)C3)nc2c1` (centres undefined), for which the cytotoxicity at 70.5 h was determined as 0.524%. The value for `CC(NC(=O)CCC(C)(C)C)C(=O)Nc1ccc(-n2cncn2)cc1` (centres undefined) was -24.9%; that for `COC(=O)c1oc(CNC(C)(C)c2ccc3c(c2)OCO3)cc1C` was 19.5%.
